Measured values published in patent publication US20220096510A1, “METHOD AND PHARMACOLOGICAL COMPOSITION FOR THE PREVENTION OF RECURRENT INFECTIONS CAUSED BY CLOSTRIDIUM DIFFICILE” (UNIVERSIDAD ANDRÉS BELLO, priority 2018, published 2022).

How the values were obtained:
C. difficile [1] = settings: 10 mM; cited from earlier work
C. difficile [2] = settings: cited from earlier work; for patients who presented late R-CDI: after 28 days
[3] = test system: C. difficile strain R20291; assay: Murine R-CDI model, intraperitoneal nystatin before and during CDI with oral vancomycin (Example 4)
Caco-2 cells = assay: Cell viability by the trypan blue and MTT methods, Caco-2; type: cell-based; settings: results not shown
[4] = test system: C. difficile R20291 spores in Caco-2 cells; assay: Internalized (taurocholate- and ethanol-resistant) spores in infected Caco-2 cells by the seeding method; type: cell-based; settings: 30 μM nystatin before and during infection; then 0.1% taurocholate 1 h and 70% ethanol
T84 cells = assay: Cell viability by the trypan blue and MTT methods, T84; type: cell-based; settings: results not shown
C. difficile [5] = settings: used after vancomycin; cited from earlier work
C. difficile toxin TcdB = settings: patients with CDI; cited from earlier work
C. difficile spores = type: in vivo, C57BL/6 mice; settings: day 2; nystatin 8,500 IU/kg oral from day -1
C. difficile [6] = test system: C. difficile
From the text: Mice were infected and dosed with an oral solution comprising a combination of nystatin and vancomycin starting from day 3 after infection (time of manifestation of the clinical symptoms).
In this sense, we studied the effect of a formulation comprising nystatin together with vancomycin administered from day 3.

For N[C@@H](CS)C(=O)O [cysteine], the “toxin production in vitro” value (C. difficile [1]) is given as “reduces toxin production”.
For CCc1c(Cl)c(O)c(Cl)c(O)c1C(=O)O[C@H]1[C@H](O)[C@H](OC)[C@H](OC/C2=C\C=C\C[C@H](O)/C(C)=C/[C@H](CC)[C@@H](O[C@@H]3OC(C)(C)[C@@H](OC(=O)C(C)C)[C@H](O)[C@@H]3O)/C(C)=C/C(C)=C/C[C@@H]([C@@H](C)O)OC2=O)O[C@@H]1C [fidaxomicin], the “patients who presented late R-CDI” value (C. difficile [2]) is given as 19.7% and the “patients who presented early recurrences” value (C. difficile [2]) is given as 8%.
In the case of C[C@@H]1[C@H](O)[C@@H](C)/C=C/C=C/CC/C=C/C=C/C=C/C=C/C(O[C@H]2O[C@H](C)[C@@H](O)[C@H](N)[C@@H]2O)CC2O[C@](O)(CC(O)C(O)CCC(O)CC(O)CC(O)CC(=O)O[C@H]1C)CC(O)C2C(=O)O (stereo partly shown) [nystatin], the “weight increase on day 11 in respect of day 0” value ([3]; nystatin 12,000 IU/kg I.P. with vancomycin 50 mg/kg oral) is reported as 6%, the “weight variation versus control group” value ([3]; nystatin 12,000 IU/kg I.P. with vancomycin 50 mg/kg oral, versus vancomycin alone) is reported as “no significant weight variations” and the cell viability (Caco-2 cells) is reported as “no differences”. For the same compound, the “amount of CFU counted (ethanol-resistant spores)” value [4] was “significant decrease” and the cell viability (T84 cells) was “no differences”.
In the case of CO[C@H]1/C=C/O[C@@]2(C)Oc3c(C)c(O)c4c(O)c(c5c(nc6cc(C)ccn65)c4c3C2=O)NC(=O)/C(C)=C\C=C\[C@H](C)[C@H](O)[C@@H](C)[C@@H](O)[C@@H](C)[C@H](OC(C)=O)[C@@H]1C [rifaximin], the efficiency rate (C. difficile [5]) is given as 64%.
In the case of CN[C@H](CC(C)C)C(=O)N[C@H]1C(=O)N[C@@H](CC(N)=O)C(=O)N[C@H]2C(=O)N[C@H]3C(=O)N[C@H](C(=O)N[C@H](C(=O)O)c4cc(O)cc(O)c4-c4cc3ccc4O)[C@H](O)c3ccc(c(Cl)c3)Oc3cc2cc(c3O[C@@H]2O[C@H](CO)[C@@H](O)[C@H](O)[C@H]2O[C@H]2C[C@](C)(N)[C@H](O)[C@H](C)O2)Oc2ccc(cc2Cl)[C@H]1O [vancomycin], the mice presenting recurrence ([3]; 5 days after finishing vancomycin 50 mg/kg, 7 days) is given as 100%, the “patients who presented late R-CDI” value (C. difficile [2]) is given as 35.5% and the “patients who presented early recurrences” value (C. difficile [2]) is given as 27%. The R-CDI rates (C. difficile toxin TcdB) was 27%, the “levels of spores in stools” value (C. difficile spores) was 3.8 logarithmic units and the “weight loss on day 11, the day of recurrence” value (C. difficile [6]; after discontinuing treatment on day 8, nystatin 4,250 and 17,000 IU/kg) was “suffered a weight loss”. For the same compound, the mice presenting recurrence (C. difficile [6]; vancomycin 50 mg/kg alone, 5 days from day 3) was 75%.
